Experimental data from ChEMBL document CHEMBL1127998, “Conformationally constrained analogues of diacylglycerol. 9.1 the effect of side-chain orientation on the protein kinase C (PK-C) binding affinity of -lactones” (Bioorg Med Chem Lett, 1994).

Assay: Displacement of [3H-20]-phorbol-12-13-dibutyrate from protein kinase C (alpha, beta, gamma) of mouse brain
Format: tissue-based

Ki | Structure (SMILES)
600 nM | CCCCCCCCCCCCC/C=C1/C(=O)O[C@@H](CO)[C@@H]1OC(C)=O
200 nM | CCCCCCCCCCCCC/C=C1\C(=O)O[C@@H](CO)[C@@H]1OC(C)=O
2500 nM | CCCCCCCCCCCCCC(=O)O[C@@H]1CC(=O)O[C@H]1CO
2800 nM | CCCCCCCCCCCCCC(=O)O[C@@H]1CCC(=O)O[C@H]1CO
